Columns and labels:
[1] = Permeability, PAMPA assay; assay type: in vitro ADME
Toxicity, Cell-TiterGlo = assay type: cell-based; details: n.o.= not observed
VDR = target: T1, VDR (Homo sapiens, UniProt P11473); assay: VDR transcription assay; assay type: cell-based; details: compared with GW0742
T1 sequence (P11473 1-427): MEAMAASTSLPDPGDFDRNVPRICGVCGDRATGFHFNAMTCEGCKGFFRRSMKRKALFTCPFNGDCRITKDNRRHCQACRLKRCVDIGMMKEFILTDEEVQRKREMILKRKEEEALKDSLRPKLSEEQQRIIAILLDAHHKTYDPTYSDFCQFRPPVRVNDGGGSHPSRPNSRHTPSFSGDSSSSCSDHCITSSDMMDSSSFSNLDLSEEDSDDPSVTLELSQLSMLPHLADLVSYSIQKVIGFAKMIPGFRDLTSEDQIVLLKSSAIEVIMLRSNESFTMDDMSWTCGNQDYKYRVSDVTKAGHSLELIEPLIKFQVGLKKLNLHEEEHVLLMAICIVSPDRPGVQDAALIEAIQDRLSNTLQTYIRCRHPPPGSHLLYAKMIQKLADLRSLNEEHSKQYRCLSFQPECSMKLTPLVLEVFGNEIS

PPARδ = target: T2, PPARδ (Homo sapiens, UniProt Q03181); assay: PPARδ transcription 2-hybrid assay; assay type: cell-based; details: up to 100 μM
T2 sequence (Q03181 211-439 limits assumed): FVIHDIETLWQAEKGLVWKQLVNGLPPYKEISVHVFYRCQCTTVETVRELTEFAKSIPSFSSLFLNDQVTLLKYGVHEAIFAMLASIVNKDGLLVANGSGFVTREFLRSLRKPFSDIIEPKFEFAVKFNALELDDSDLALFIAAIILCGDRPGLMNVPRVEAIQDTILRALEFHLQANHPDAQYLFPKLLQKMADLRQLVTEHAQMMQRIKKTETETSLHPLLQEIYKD

| Structure (SMILES) | Papp [1] [×10⁻⁶ cm/s] | other results |
| --- | --- | --- |
| COC(=O)c1ccccc1OCc1oc(-c2ccccc2OC)nc1C [4a] | 468 | – |
| COC(=O)Cc1ccc(OCc2oc(-c3ccccc3OC)nc2C)cc1 [7a] | 275 | – |
| COC(=O)c1ccc(OCc2oc(-c3cccc(OC)c3)nc2C)cc1 [6b] | 372 | – |
| COc1cccc(-c2nc(C)c(COc3cccc(C(=O)O)c3)o2)c1 [10b] | 132 | – |
| COC(=O)c1ccccc1OCc1oc(-c2cccc(OC)c2)nc1C [4b] | 513 | – |
| COC(=O)c1ccc(OCc2oc(-c3ccccc3OC)nc2C)cc1 [6a] | 447 | – |
| COC(=O)CCc1ccc(OCc2oc(-c3cccc(OC)c3)nc2C)cc1 [8b] | 457 | – |
| COc1ccccc1-c1nc(C)c(COc2cccc(C(=O)O)c2)o1 [10a] | 263 | % Toxicity at 100 μM (Toxicity, Cell-TiterGlo): n.o. |
| COC(=O)c1cccc(OCc2oc(-c3cccc(OC)c3)nc2C)c1 [5b] | 427 | – |
| COC(=O)c1cccc(OCc2oc(-c3ccccc3OC)nc2C)c1 [5a] | 380 | increased potency in respect to GW0742 (VDR antagonism) (VDR): 10 fold; activation of PPARδ-mediated transcription (in words) (PPARδ): inability to activate |
| COC(=O)CCc1ccc(OCc2oc(-c3ccccc3OC)nc2C)cc1 [8a] | 457 | – |
| COc1cccc(-c2nc(C)c(COc3ccccc3C(=O)O)o2)c1 [9b] | 234 | – |
| COc1ccccc1-c1nc(C)c(COc2ccccc2C(=O)O)o1 [9a] | 234 | – |
| COC(=O)Cc1ccc(OCc2oc(-c3cccc(OC)c3)nc2C)cc1 [7b] | 479 | activation of PPARδ-mediated transcription (in words) (PPARδ): without activating |

More lines, main results first:

| Papp [1] [×10⁻⁶ cm/s] | Structure (SMILES) | other results |
| --- | --- | --- |
| 257 | COc1ccccc1-c1nc(C)c(COc2ccc(CCC(=O)O)cc2)o1 [13a] | – |
| 214 | COc1ccccc1-c1nc(C)c(COc2ccc(C(=O)O)cc2)o1 [11a] | % Toxicity at 100 μM (Toxicity, Cell-TiterGlo): n.o. |
| 191 | COc1ccccc1-c1nc(C)c(COc2ccc(CC(=O)O)cc2)o1 [12a] | % Toxicity at 100 μM (Toxicity, Cell-TiterGlo): n.o. |
| 132 | COc1cccc(-c2nc(C)c(COc3ccc(CC(=O)O)cc3)o2)c1 [12b] | – |
| 120 | COc1cccc(-c2nc(C)c(COc3ccc(CCC(=O)O)cc3)o2)c1 [13b] | – |
| 170 | COc1cccc(-c2nc(C)c(COc3ccc(C(=O)O)cc3)o2)c1 [11b] | – |

— PMC6008168 (Bioorganic & medicinal chemistry letters, 2017)
